Results as given in patent publication US20010056084A1, “MGluR5 antagonists for the treatment of pain and anxiety” (priority 1998, published 2001).

Legend:
naive rat hind paw = naive rat hind paw test of mechanical hyperalgesia (Randall and Selitto), glutamate receptor agonists; type: in vivo
rat = settings: intrathecally administered; cited from earlier work
[1] = tested on: DHPG-induced hyperalgesia in the rat hind paw; assay: DHPG-induced hyperalgesia in the rat hind paw (Randall and Selitto), co-administration; type: in vivo; settings: co-administration with DHPG to the rat hind paw

SMILES | rank order of potency as hyperalgesic agents (naive rat hind paw) | spontaneous nociceptive responses (rat) | inhibition of DHPG-induced hyperalgesia [1]
N[C@@H](CCC(=O)O)C(=O)O [glutamate] | glutamate ˜2-chloro-3-hydroxyphenylglycine (CHPG) | – | –
CN[C@H](CC(=O)O)C(=O)O [NMDA] | NMDA>AMPA | – | –
NC1(C(=O)O)CCC2C(C(=O)O)C21 (racemic) [LY 314582, (±)-2-aminobicyclo[3.1.0]hexane-2,6-dicarboxylic acid] | (LY 314582)>L-4-phosphono-2-amino-butiric acid (L-AP4) | – | –
NC(C(=O)O)c1cc(O)cc(O)c1 (centres unmarked) [DHPG, 3,5-dihydroxyphenyiglycine] | DHPG>NMDA | induced an increase in spontaneous nocicepfive responses | –
N[C@H](C(=O)O)c1ccc(C(=O)O)cc1 [(S)-4C-PG, (S)-4-carboxyphenylglycine] | – | – | limited effect
N[C@@H](CCP(=O)(O)O)C(=O)O [L-AP4, L-4-phosphono-2-amino-butiric acid] | >L-4-phosphono-2-amino-butiric acid (L-AP4) | – | –
Cc1o[nH]c(=O)c1CC(N)C(=O)O (centres unmarked) [AMPA] | AMPA>(±)-2-aminobicyclo[3.1.0]hexane-2,6-dicarboxylic acid (LY 314582) | – | –
